Data on 23 compounds can be found in patent US12630563B2, “Macrocyclic RIP2-kinase inhibitors” (Oncodesign S.A., priority 2020, dated 2026).

This assay deals with T1, recombinant hRIPK2 protein (kinase domain aa 1-299-His-tagged) (Homo sapiens, UniProt O43353).
T1 construct: kinase domain aa 1-299-His-tagged; purchased Life Technologies PR7829A
T1 sequence (O43353 1-299): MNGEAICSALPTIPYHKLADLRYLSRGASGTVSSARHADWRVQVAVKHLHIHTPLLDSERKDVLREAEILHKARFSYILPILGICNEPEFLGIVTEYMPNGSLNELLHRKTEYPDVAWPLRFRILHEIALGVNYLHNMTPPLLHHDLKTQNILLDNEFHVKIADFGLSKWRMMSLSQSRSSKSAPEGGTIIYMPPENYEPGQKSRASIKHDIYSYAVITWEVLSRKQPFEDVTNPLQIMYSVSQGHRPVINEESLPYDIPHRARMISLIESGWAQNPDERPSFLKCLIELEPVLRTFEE
As to the kind of experiment: RIPK2 AlphaLISA assay (displacement of bead-bound CZC-8004 from hRIPK2). The class given is binding. The following applies: recombinant hRIPK2 kinase domain 10 nM, 2 h at 23° C. From the text: RIPK2 AlphaLISA® Assay (Amplified Luminescent Proximity Homogeneous Assay)
A non-specific kinase inhibitor (CZC-8004 Cayman #916603-07-1) bound to an acceptor bead (#6772001 PerkinElmer) was mixed to the recombinant hRIPK2 protein (kinase domain aa 1-299-His-tagged—Life Technologies PR7829A) and a Ni2+-tagged donor beads (#AS101D PerkinElmer). In the presence of an inhibitor, the compound beads displacement from hRIPK2 was followed by signal loss. In a 384-well ProxiPlate@ (Perkin Elmer, 6008280) add:
2 μL RIPK2 inhibitor (in DMSO 0.8%).
2 μL human recombinant RIPK2 (10 nM diluted in AlphaLISA buffer 1×).
4 μL Mix of […] 1/1000 in AlphaLISA buffer 1×.
Homogenize using a microtiter plate shaker and incubate for 2 h at 23° C.
Read using EnVision®-Alpha Reader (PerkinElmer) according to manufacturer specifications.
As to `[2H]C([2H])([2H])O[C@@H]1C[C@H]2COc3ccn4ncc(c4n3)-c3cc(cc(OC)c3)NCCN2C1=O` [Example 37, (12R,14S)-12-(2H3)methoxy-4-methoxy-16-oxa-7,10,20,21,24-pentaazapentacyclo[15.5.2.1^2,6.0^10,^14.0^20,^23]pentacosa-1(23),2,4,6(25),17(24),18,21-heptaen-11-one], the IC50 is below 10 nM.

As for `CC(C)O[C@@H]1C[C@H]2COc3ccn4ncc(c4n3)-c3cc(Cl)cc(c3)NCCN2C1=O` [Example 38, (12R,14S)-4-chloro-12-(propan-2-yloxy)-16-oxa-7,10,20,21,24-pentaazapentacyclo[15.5.2.1^2,6.0^10,^14.0^20,^23]pentacosa-1(23),2,4,6(25),17(24),18,21-heptaen-11-one], the half-maximal inhibitory concentration (IC50) is below 10 nM.

As for `CCO[C@@H]1C[C@H]2COc3nc4c(cnn4cc3C)-c3cc(cc(OC)c3)NCCN2C1=O` [Example 39, (2^3Z,2^4E,5^2S,5^4R)-5^4-ethoxy-1^5-methoxy-2^6-methyl-3-oxa-8-aza-2(3,5)-pyrazolo[1,5-a]96yrimidine-5(2,1)-pyrrolidina-1(1,3)-benzenacyclooctaphan-5^5-one], the IC50 is below 10 nM.

As for `CO[C@@H]1CC2(C)COc3ccn4ncc(c4n3)-c3cc(F)cc(c3)NCCN2C1=O` (some centres unmarked) [Example 40], the concentration for half-maximal inhibition (IC50) was below 10 nM.

With `CO[C@@H]1C[C@H]2COc3ccn4ncc(c4n3)-c3cc(cc(-n4cccn4)c3)NCCN2C1=O` [Example 41, (12R,14S)-12-methoxy-4-(1H-pyrazol-1-yl)-16-oxa-7,10,20,21,24-pentaazapentacyclo[15.5.2.1^2,6.0^10,^14.0^20,^23]pentacosa-1(23),2(25),3,5,17(24),18,21-heptaen-11-one], the IC50 was below 10 nM.

In the case of `CO[C@@H]1C[C@H]2COc3nc4c(cnn4cc3C)-c3cc(cc(-n4cccn4)c3)NCCN2C1=O` [Example 42, (12R,14S)-12-methoxy-18-methyl-4-(1H-pyrazol-1-yl)-16-oxa-7,10,20,21,24-pentaazapentacyclo[15.5.2.1^2,6.0^10,^14.0^20,^23]pentacosa-1(23),2(25),3,5,17(24),18,21-heptaen-11-one], the IC50 is below 10 nM.

As for `CO[C@@H]1C[C@H]2COc3ccn4ncc(c4n3)-c3cc(cc(-n4nccc4C)c3)NCCN2C1=O` [Example 43, (12R,14S)-12-methoxy-4-(5-methyl-1H-pyrazol-1-yl)-16-oxa-7,10,20,21,24-pentaazapentacyclo[15.5.2.1^2,6.0^10,^14.0^20,^23]pentacosa-1(23),2(25),3,5,17(24),18,21-heptaen-11-one], the concentration for half-maximal inhibition (IC50) is below 10 nM.

As to `CO[C@@H]1C[C@H]2COc3ccn4ncc(c4n3)-c3cc(cc(OCc4cccnc4)c3)NCCN2C1=O` [Example 44, (12R,14S)-12-methoxy-4-(pyridin-3-ylmethoxy)-16-oxa-7,10,20,21,24-pentaazapentacyclo[15.5.2.1^2,6.0^1°,^14.0^2°,^23]pentacosa-1 (23),2(25),3,5,17(24),18,21-heptaen-11-one], the half-inhibitory concentration (IC50) was in the range of 10 to 100 nM.

On to `CO[C@@H]1C[C@H]2COc3ccn4ncc(c4n3)-c3cc(cc(OCC4CC4)c3)NCCN2C1=O` [Example 45, (12R,14S)-4-(cyclopropylmethoxy)-12-methoxy-16-oxa-7,10,20,21,24-pentaazapentacyclo[15.5.2.1^2,6.0^10,^14.0^20,^23]pentacosa-1(23),2,4,6(25),17(24),18,21-heptaen-11-one], for which the IC50 lay in the range of 100 to 11000 nM.

With `CO[C@@H]1C[C@H]2COc3ccn4ncc(c4n3)-c3cc(cc(OCc4cnn(C)c4)c3)NCCN2C1=O` [Example 46, (12R,14S)-12-methoxy-4-[(1-methyl-1H-pyrazol-4-yl)methoxy]-16-oxa-7,10,20,21,24-pentaazapentacyclo[15.5.2.1^2,6.0^10,^14.0^20,^23]pentacosa-1(23),2,4,6(25),17(24),18,21-heptaen-11-one], the IC50 lay in the range of 10 to 100 nM.

Regarding `COCCO[C@@H]1C[C@H]2COc3ccn4ncc(c4n3)-c3cc(cc(OC)c3)NCCN2C1=O` [Example 47, (12R,14S)-4-methoxy-12-(2-methoxyethoxy)-16-oxa-7,10,20,21,24-pentaazapentacyclo[15.5.2.1^2,6.0^10,^14.0^20,^23]pentacosa-1(23),2(25),3,5,17(24),18,21-heptaen-11-one], the IC50 is below 10 nM.

Turning to `CO[C@@H]1C[C@H]2COc3nc4c(cnn4cc3C)-c3cc(cc(OCC4CC4)c3)NCCN2C1=O` [Example 48, (12R,14S)-4-(cyclopropylmethoxy)-12-methoxy-18-methyl-16-oxa-7,10,20,21,24-pentaazapentacyclo[15.5.2.1^2,6.0^10,^14.0^20,^23]pentacosa-1(23),2,4,6(25),17(24),18,21-heptaen-11-one], the half-maximal inhibitory concentration (IC50) lay in the range of 100 to 11000 nM.

In the case of `CO[C@@H]1C[C@H]2COc3nc4c(cnn4cc3C)-c3cc(cc(OCc4cccnc4)c3)NCCN2C1=O` [Example 49, (12R,14S)-12-methoxy-18-methyl-4-(pyridin-3-ylmethoxy)-16-oxa-7,10,20,21,24-pentaazapentacyclo[15.5.2.1^2,6.0^10,^14.0^20,^23]pentacosa-1(23),2,4,6(25),17(24),18,21-heptaen-11-one], the 50% inhibitory concentration (IC50) is 10 to 100 nM.

For `CO[C@@H]1C[C@H]2COc3nc4c(cnn4cc3C)-c3cc(cc(OCC4CCOC4)c3)NCCN2C1=O` (stereo partly drawn) [Example 50, (12R,14S)-12-methoxy-18-methyl-4-(oxolan-3-ylmethoxy)-16-oxa-7,10,20,21,24-pentaazapentacyclo[15.5.2.1^2,6.0^10,^14.0^20,^23]pentacosa-1(23),2,4,6(25),17(24),18,21-heptaen-11-one], the IC50 fell in the range of 10 to 100 nM.

`CO[C@@H]1C[C@H]2COc3nc4c(cnn4cc3C)-c3cc(cc(OCc4cnn(C)c4)c3)NCCN2C1=O` [Example 51, (12R,14S)-12-methoxy-18-methyl-4-[(1-methyl-1H-pyrazol-4-yl)methoxy]-16-oxa-7,10,20,21,24-pentaazapentacyclo[15.5.2.1^2,6.0^10,^14.0^20,^23]pentacosa-1(23),2,4,6(25),17(24),18,21-heptaen-11-one]: the IC50 is 100 to 11000 nM.

For `[2H]C([2H])([2H])Oc1cc2cc(c1)-c1cnn3ccc(nc13)OC[C@@H]1C[C@@H](OC)C(=O)N1CCN2` [Example 52, (12R,14S)-4-(^2H3)methoxy-12-methoxy-16-oxa-7,10,20,21,24-pentaazapentacyclo[15.5.2.1^2,6.0^10,^14.0^20,^23]pentacosa-1(23),2,4,6(25),17(24),18,21-heptaen-11-one], the IC50 is below 10 nM.

Regarding `[2H]C([2H])([2H])Oc1cc2cc(c1)-c1cnn3ccc(nc13)OC[C@@H]1C[C@@H](OC([2H])([2H])[2H])C(=O)N1CCN2` [Example 53, (12R,14S)-4,12-bis(^2H3)methoxy-16-oxa-7,10,20,21,24-pentaazapentacyclo[[15.5.2.1^2,6.0^10,^14.0^20,^23]pentacosa-1(23),2,4,6(25),17(24),18,21-heptaen-11-one], the IC50 was below 10 nM.

`CCN(C)C(=O)c1cc2cc(c1)-c1cnn3ccc(nc13)OC[C@@H]1C[C@@H](OC)C(=O)N1CCN2` [Example 56, (12R,14S)-N-ethyl-12-methoxy-N-methyl-11-oxo-16-oxa-7,10,20,21,24-pentaazapentacyclo[15.5.2.1^2,6.0^10,^14.0^20,^23]pentacosa-1(23),2,4,6(25),17(24),18,21-heptaene-4-carboxamide]: the concentration for half-maximal inhibition (IC50) was below 10 nM.

In the case of `CCO[C@@H]1C[C@H]2COc3ccn4ncc(c4n3)-c3cc(cc(C(=O)N(C)OC)c3)NCCN2C1=O` [Example 57, (12R,14S)-12-ethoxy-N-methoxy-N-methyl-11-oxo-16-oxa-7,10,20,21,24-pentaazapentacyclo[15.5.2.1^2,6.0^10,^14.0^20,^23]pentacosa-1(23),2(25),3,5,17(24),18,21-heptaene-4-carboxamide], the half-inhibitory concentration (IC50) is below 10 nM.

Take `CCO[C@@H]1C[C@H]2COc3ccn4ncc(c4n3)-c3cc(cc(C(=O)N(C)C)c3)NCCN2C1=O` [Example 58, (12R,14S)-12-ethoxy-N,N-dimethyl-11-oxo-16-oxa-7,10,20,21,24-pentaazapentacyclo[15.5.2.1^2,6.0^10,^14.0^20,^23]pentacosa-1(23),2(25),3,5,17(24),18,21-heptaene-4-carboxamide]: the 50% inhibitory concentration (IC50) was below 10 nM.

As for `CCO[C@@H]1C[C@H]2COc3ccn4ncc(c4n3)-c3cc(cc(C(=O)NC)c3)NCCN2C1=O` [Example 59, (12R,14S)-12-ethoxy-N-methyl-11-oxo-16-oxa-7,10,20,21,24-pentaazapentacyclo[15.5.2.1^2,6.0^10,^14.0^20,^23]pentacosa-1(23),2(25),3,5,17(24),18,21-heptaene-4-carboxamide], the IC50 was below 10 nM.

`CCO[C@@H]1C[C@H]2COc3ccn4ncc(c4n3)-c3cc(cc(C(N)=O)c3)NCCN2C1=O` [Example 60, (12R,14S)-12-ethoxy-11-oxo-16-oxa-7,10,20,21,24-pentaazapentacyclo[15.5.2.1^2,6.0^10,^14.0^20,^23]pentacosa-1(23),2(25),3,5,17(24),18,21-heptaene-4-carboxamide]: the IC50 was below 10 nM.

Turning to `CO[C@@H]1C[C@H]2COc3ccn4ncc(c4n3)-c3cc(cc(C(=O)N(C)CC4CC4)c3)NCCN2C1=O` [Example 61, (12R,14S)-N-(cyclopropylmethyl)-12-methoxy-N-methyl-11-oxo-16-oxa-7,10,20,21,24-pentaazapentacyclo[15.5.2.1^2,6.0^10,^14.0^20,^23]pentacosa-1(23),2,4,6(25),17(24),18,21-heptaene-4-carboxamide], the 50% inhibitory concentration (IC50) was in the range of 100 to 11000 nM.

The IC50 is the point on the concentration scale where inhibition reaches its midpoint.
